Experimental data as given in patent US20170232083A1, “METHODS OF DIAGNOSIS AND TREATMENT OF CELIAC DISEASE IN CHILDREN” (priority 2014, published 2017).

System: PBMC (polyclonal gluten-specific T cells) of paediatric and adult CD patients
Experiment: IFN-γ ELISpot of PBMC after 3 day oral wheat challenge (SFU, % of maximal peptide response, dominance scores, EC50; Examples 5-6)
Assay type: cell-based, human
Conditions: for IFN-γ ELISpot response: after oral wheat challenge; for Cross-reactive T cell response: following wheat challenge
[1] = subject I (3-5yrs/6-10yrs part)
[2] = subject J (3-5yrs/6-10yrs part)
[3] = subject K (3-5yrs/6-10yrs part)
[4] = subject V (3-5yrs/6-10yrs part)
[5] = subject W (3-5yrs/6-10yrs part)
[6] = subject Y (3-5yrs/6-10yrs part)
[7] = subject five (3-5yrs/6-10yrs part)
[8] = subject seven (3-5yrs/6-10yrs part)
[9] = subject six (3-5yrs/6-10yrs part)
[10] = subject ten (3-5yrs/6-10yrs part)
[11] = subject two (3-5yrs/6-10yrs part)

QPFPQPEQPFPWQP
IFN-γ ELISpot response (patient A, 11-17 yrs, cut-off 10 SFU): 3.5 SFU
Significant response as percentage of maximal peptide SFU (patient D, max peptide 30.5 SFU): + (>70% = +)
IFN-γ ELISpot response (patient E, H, 11-17 yrs, cut-off 10 SFU): 44 SFU
Significant response as percentage of maximal peptide SFU (patient E, max peptide 224 SFU): ′ (11-20% = ′)
IFN-γ ELISpot response (patient F, 11-17 yrs, cut-off 10 SFU): 84.5 SFU
Significant response as percentage of maximal peptide SFU (patient F, max peptide 178 SFU): ′′′ (41-70% = ′′′)
IFN-γ ELISpot response (patient G, 11-17 yrs, cut-off 10 SFU): 8 SFU
IFN-γ ELISpot response (patient H (HLA-DQ2.5 homozygote), 3-5yrs, cut-off 10 SFU): 27.5 SFU
IFN-γ ELISpot response (patient H, 11-17 yrs, cut-off 10 SFU): 8.5 SFU
IFN-γ ELISpot response (patient ID not given, 11-17 yrs, cut-off 10 SFU): 67.5 SFU
Significant response as percentage of maximal peptide SFU (patient ID not given, max peptide 95 SFU): + (>70% = +)
Significant response as percentage of maximal peptide SFU (patient II, max peptide 15 SFU): + (>70% = +)
Significant response as percentage of maximal peptide SFU (patient J, max peptide 196 SFU): ′′′ (41-70% = ′′′)
Significant response as percentage of maximal peptide SFU (patient K, max peptide 53 SFU): ′′ (21-40% = ′′)
Significant response as percentage of maximal peptide SFU (patient M, max peptide 48 SFU): ′′′ (41-70% = ′′′)
IFN-γ ELISpot response (patient N, 3-5yrs, cut-off 10 SFU): 7 SFU
IFN-γ ELISpot response (patient P, 11-17 yrs, cut-off 21.6 SFU): 20 SFU
IFN-γ ELISpot response (patient Q, 11-17 yrs, cut-off 10 SFU): 63 SFU
IFN-γ ELISpot response (patient U, H, 11-17 yrs, cut-off 10 SFU): 17 SFU
Significant response as percentage of maximal peptide SFU (patient U, max peptide 81 SFU): ′′ (21-40% = ′′)
IFN-γ ELISpot response (patient V, 6-10 yrs, cut-off 10 SFU): 25 SFU
Significant response as percentage of maximal peptide SFU (patient V, max peptide 35 SFU): + (>70% = +)
IFN-γ ELISpot response (patient Y, 6-10 yrs, cut-off 10 SFU): 10 SFU
Significant response as percentage of maximal peptide SFU (patient Y, max peptide 16 SFU): ′′′ (41-70% = ′′′)
Significant response as percentage of maximal peptide SFU (patient Z, max peptide 13 SFU): + (>70% = +)
IFN-γ ELISpot response (patient eleven, 6-10 yrs, cut-off 10 SFU): 20.5 SFU
Significant response as percentage of maximal peptide SFU (patient eleven, max peptide 57 SFU): ′′ (21-40% = ′′)
Significant response as percentage of maximal peptide SFU (patient five, max peptide 48 SFU): + (>70% = +)
IFN-γ ELISpot response (patient four, 3-5yrs, cut-off 10 SFU): 28.5 SFU
Significant response as percentage of maximal peptide SFU (patient four, max peptide 44 SFU): ′′′ (41-70% = ′′′)
IFN-γ ELISpot response (patient seven, 6-10 yrs, cut-off 10.5 SFU): 11 SFU
Significant response as percentage of maximal peptide SFU (patient seven, max peptide 27 SFU): ′′′ (41-70% = ′′′)
IFN-γ ELISpot response (patient six, 3-5yrs, cut-off 10 SFU): 10 SFU
Significant response as percentage of maximal peptide SFU (patient six, max peptide 13 SFU): + (>70% = +)
IFN-γ ELISpot response (patient ten, 3-5yrs, cut-off 10 SFU): 14.5 SFU
Significant response as percentage of maximal peptide SFU (patient ten, max peptide 14.5 SFU): + (>70% = +)
IFN-γ ELISpot response (patient three, 6-10 yrs, cut-off 10.5 SFU): 95 SFU
IFN-γ ELISpot response (patient twelve, 11-17 yrs, cut-off 10 SFU): 30.5 SFU
IFN-γ ELISpot response (patient two, 3-5yrs, cut-off 10 SFU): 52.5 SFU
Significant response as percentage of maximal peptide SFU (patient two, max peptide 60 SFU): + (>70% = +)
Cross-reactive T cell response (subject A, 11-17yrs): 15 SFU
Significant response as a percentage of maximal peptide SFU (subject D, 11-17yrs): + (>70% = +)
Cross-reactive T cell response (subject D, 11-17yrs): 30.5 SFU
Significant response as a percentage of maximal peptide SFU (subject E, 11-17yrs): ′ (11-20% = ′)
Cross-reactive T cell response (subject E, 11-17yrs): 44 SFU
Significant response as a percentage of maximal peptide SFU (subject F, 11-17yrs): ′′′ (41-70% = ′′′)
Cross-reactive T cell response (subject F, 11-17yrs): 845 SFU
Cross-reactive T cell response (subject G, 11-17yrs): 8 SFU
Cross-reactive T cell response (subject H): 8.5 SFU
Cross-reactive T cell response [1]: 5.5 SFU
Cross-reactive T cell response [2]: 95- SFU
Significant response as a percentage of maximal peptide SFU (subject K): ′′ (21-40% = ′′)
Cross-reactive T cell response [3]: 18.5 SFU
Cross-reactive T cell response (subject P, 11-17yrs): 20 SFU
Significant response as a percentage of maximal peptide SFU (subject Q, 11-17yrs): ′′′ (41-70% = ′′′)
Cross-reactive T cell response (subject Q, 11-17yrs): 63 SFU
Cross-reactive T cell response (subject T, 11-17yrs): 67.5 SFU
Significant response as a percentage of maximal peptide SFU (subject U, 11-17yrs): ′′ (21-40% = ′′)
Cross-reactive T cell response (subject U, 11-17yrs): 17 SFU
Significant response as a percentage of maximal peptide SFU (subject V): + (>70% = +)
Cross-reactive T cell response [4]: 25 SFU
Cross-reactive T cell response [5]: 9 SFU
Cross-reactive T cell response [6]: 10- SFU
Significant response as a percentage of maximal peptide SFU (subject five): + (>70% = +)
Cross-reactive T cell response [7]: 40.5 SFU
Cross-reactive T cell response (subject nine, 11-17yrs): 15 SFU
Significant response as a percentage of maximal peptide SFU (subject seven): ′′ (21-40% = ′′)
Cross-reactive T cell response [8]: 11 SFU
Significant response as a percentage of maximal peptide SFU (subject six): + (>70% = +)
Cross-reactive T cell response [9]: 10 SFU
Significant response as a percentage of maximal peptide SFU (subject ten): + (>70% = +)
Cross-reactive T cell response [10]: 14.5 SFU
Significant response as a percentage of maximal peptide SFU (subject two): + (>70% = +)
Cross-reactive T cell response [11]: 52.5 SFU

PEQPFPEQPQPYPQQP
Cross-reactive T cell response (subject A, 11-17yrs): 2 SFU
Cross-reactive T cell response (subject D, 11-17yrs): 2 SFU
Significant response as a percentage of maximal peptide SFU (subject E, 11-17yrs): (6-10% - ^)
Cross-reactive T cell response (subject E, 11-17yrs): 13 SFU
Cross-reactive T cell response (subject F, 11-17yrs): 6 SFU
Cross-reactive T cell response (subject G, 11-17yrs): 2 SFU
Cross-reactive T cell response (subject H): 6 SFU
Cross-reactive T cell response [1]: 2 SFU
Significant response as a percentage of maximal peptide SFU (subject J): ′ (11-20% = ′)
Cross-reactive T cell response [2]: 36 SFU
Cross-reactive T cell response [3]: 6 SFU
Cross-reactive T cell response (subject P, 11-17yrs): 10 SFU
Cross-reactive T cell response (subject Q, 11-17yrs): 2 SFU
Cross-reactive T cell response (subject T, 11-17yrs): 0 SFU
Cross-reactive T cell response (subject U, 11-17yrs): 1 SFU
Cross-reactive T cell response [4]: 1 SFU
Cross-reactive T cell response [5]: 9 SFU
Cross-reactive T cell response [6]: 1 SFU
Cross-reactive T cell response [7]: 1 SFU
Cross-reactive T cell response (subject nine, 11-17yrs): 1 SFU
Cross-reactive T cell response [8]: 4 SFU
Cross-reactive T cell response [9]: 5 SFU
Significant response as a percentage of maximal peptide SFU (subject ten): + (>70% = +)
Cross-reactive T cell response [10]: 12 SFU
Cross-reactive T cell response [11]: 1 SFU
